Literature values in patent US20050171374A1, “Preparation of levulinic acid esters from alpha-angelica lactone and olefins; use of ester compositions as fuel additives” (priority 2004, published 2005).
Where a name gives a salt, the structure may show the parent alone.

Tests used:
[1] = for Lower Heating Value [2]: reference [2] Walters, molar group contributions; for Lower Heating Value [1]: reference [1] DIPPR, cells marked [3] from DOE/EIA report
[2] = reference [1] DIPPR
[3] = reference [1] DIPPR; remark: listed apart in the source

SMILES | Lower Heating Value [2] [1] | Flash Point [1] [2] | Vapor Press. (100° F.) [1] [3] | Lower Heating Value [1] [1]
CC(=O)CCC(=O)OC(C)C [Isopropyl Levulinate] | 10969 Btu/lb |  |  | 
COC(C)(C)C [MTBE, methyl tertiary-butyl ether, reference compound] | 16578 Btu/lb | −28.15 °C | 55 KPa | 15100[3] Btu/lb
CCCCOC=O [N-Butyl Formate] | 15175 Btu/lb | 18 °C | 7.4 KPa | 11415 Btu/lb
CC(C)(C)OC=O [Tert-Butyl Formate] | 12873 Btu/lb | −9 °C | 19.8 KPa | 11277 Btu/lb
CCC(C)OC=O (stereo not shown) [Sec-Butyl Formate] | 10617 Btu/lb | 0.85 °C | 12.1 KPa | 
CCOC=O [Ethyl Formate] | 10139 Btu/lb | −20 °C | 55 KPa | 8751 Btu/lb
COC(=O)CCC(C)=O [Methyl Levulinate] | 10773 Btu/lb |  |  | 
CCCCCOC=O [Amyl Formate Ester] | 13905 Btu/lb | 26.85 °C | 2.5 KPa | 12274 Btu/lb
CC(=O)CCC(=O)OCCC(C)C [Isoamyl Levulinate] | 13605 Btu/lb |  |  | 
CCC(C)OC(=O)CCC(C)=O (stereo not shown) [Sec-Butyl Levulinate] | 11748 Btu/lb |  |  | 
CCO [Ethanol, reference compound] | 12477 Btu/lb | 12.85 °C | 16 KPa | 11500[3] Btu/lb
CCCOC=O [N-Propyl Formate] | 11792 Btu/lb | −3.15 °C | 19.9 KPa | 9964 Btu/lb
CCCCCOC(=O)CCC(C)=O [Amyl Levulinate] | 14909 Btu/lb |  |  | 
CCOC(=O)CCC(C)=O [Ethyl Levulinate] | 11722 Btu/lb |  |  | 
CC(C)COC=O [Isobutyl Formate] | 12797 Btu/lb | 3.85 °C | 10.2 KPa | 11377 Btu/lb
CC(=O)CCC(=O)OCC(C)C [Isobutyl Levulinate] | 13041 Btu/lb |  |  | 
CO [Methanol, reference compound] | 8950 Btu/lb | 10.85 °C | 32 KPa | 8570 Btu/lb
CC(C)OC=O [Isopropyl Formate] | 12304 Btu/lb | −6 °C |  | 
COC=O [Methyl Formate] | 7711 Btu/lb | −19.15 °C | 126.2 KPa | 6393 Btu/lb
CC(=O)CCC(=O)OC(C)(C)C [Tert-Butyl Levulinate] | 12010 Btu/lb |  |  | 
CCCOC(=O)CCC(C)=O [N-Propyl Levulinate] | 13912 Btu/lb |  |  | 
CCCCOC(=O)CCC(C)=O [N-Butyl Levulinate] | 14451 Btu/lb |  |  | 
